Assay results from US8703805B2 (Exelixis Patent Company LLC, priority 2005, dated 2014).

Test system: LXRα and/or LXRβ
Experiment: LXR/LXRE co-transfection assay (luciferase reporter, CV-1 cells)
Format: cell-based, human
Details: IC50 or EC50 for LXR (LXRα and/or LXRβ, not distinguished), tested as described in Example 109, CV-1 cells
Text: To measure the ability of compounds to activate or inhibit the transcriptional activity of LXR in a cell based assay, the co-transfection assay was used. It has been shown that LXR functions as a heterodimer with RXR. For the co-transfection assay; expression plasmids for LXR and RXR are introduced via transient transfection into mammalian cells along with a luciferase reporter plasmid that contains one copy of a DNA sequence that is bound by LXR-RXR heterodimers (LXRE; Willy, P. ad. 1995). Treatment of transfected cells with an LXR agonist increases the transcriptional activity of LXR, which is measured by an increase in luciferase activity.
CV-1 African Green Monkey Kidney Cells Co-transfection expression plasmids, comprising full-length LXRα (pCMX-h LXRα, LXRβ (pCMX-hLXRβ), or RXRα (pCMX-RXR), reporter plasmid (LXREx1-Tk-Luciferase), and control (pCMX-Galactosidase expression vector) (Willey et al. Genes & Development 91033-1045 (1995)). Transfection reagent such as FuGENE6 (Roche). 1× Cell lysis buffer (1% Triton X 100 (IT Baker X200-07), 10% Glycerol (JT Baker M778-07), 5 mM Ditriotreitol (Quantum Bioprobe DTT03; add fresh before lysing), 1 mM EGTA (Ethylene Glycol-bis(B-Amino ethyl ether)-N,N,N′,N′-Tetracetic Acid) (Sigma E-4378), 25 mM Tricine (ICN 807420) pH 7.8) 1× Luciferase assay buffer (pH at 7.8) (0.73 mM ATP, 22.3 mM Tricine, 0.11 mM EDTA, 33.3 mM DTT) 1× Luciferrin/CoA (11 mM Luciferin, 3.05 mM Coenzyme A, 10 mM HEPES) Preparation of Screening Reagents
CV-1 cells were prepared 24 hours prior to the experiment by plating them into T-175 flasks or 500 cm^2 dishes in order to achieve 70-80% confluency on the day of the transfection. The number of cells to be transfected was determined by the number of plates to be screened. each 384 well plate requires 1.92×10^6 cells or 5000 cells per well. DNA Transfection Reagent was prepared by mixing the required plasmid DNAs with a cationic lipid transfection reagent FuGENE6 (Roche) by following the instructions provided with the reagents. Optimal DNA amounts were determined empirically per cell line and size of vessel to be transfected. 10-12 mL of media was added to the DNA Transfection Reagent and this mixture was added to the cells after aspirating media from the T175 cm^2 flask. Cells were then incubated at least 5 hours at 37° C. to prepare screening cells.
Luciferase assay reagent was prepared by combining before use (per 10 mL): […], 0.54 mL of 1× Luciferrin/CoA; 0.54 mL of 0.2 M Magnesium sulfate
Assay plates were prepared by dispensing 5 μL of compound per well of a 384 well plate to achieve final compound concentration of 10 μM and no more than 1% DMSO. Media was removed from the screening cells, the cells trypsinized, harvested cells by centrifugation, counted, and plated at a density of approximately 5000 cells per well in the 384 well assay plate prepared above in a volume of about 45 μL. Assay plates containing both compounds and screening cells (50 μL in total volume) were incubated for 20 hours at 37° C.
After incubation with compounds, media was removed from the cells and lysis buffer (30 μL/well) added. After 30 minutes at ambient temperature, luciferase assay buffer (30 μL/well) was added and the assay plates read on a luminometer (PE Biosystems Northstar reader with on-board injectors, or equivalent). Plates were read immediately after addition of luciferase assay buffer.
The LXR/LXRE co-transfection assay can be used to establish the EC50/IC50 values for potency and percent activity or inhibition for efficacy. Efficacy defines the activity of a compound relative to a high control ((N-(3-((4-fluorophenyl)-(naphthalene-2-sulfonyl)amino)propyl)-2,2-dimethylpropionamide)) or a low control (DMSO/vehicle). The dose response curves are generated from an 8 point curve with concentrations differing by ½ LOG units. each point represents the average of 4 wells of data from a 384 well plate. […]

SMILES | EC50 [nM]
CC(C)S(=O)(=O)c1cccc(-c2ccc(-c3cc(C(F)(F)F)nn3-c3ncccc3C(F)(F)F)s2)c1 [Example 1169, 2-[5-(5-{3-[(1-methylethyl)sulfonyl)phenyl}-2-thienyl)-3-(trifluoromethyl)-1H-pyrazol-1-yl]-3-(trifluoromethyl)pyridine] | < 1000
CON(C)C(=O)c1cc(-c2ccc(-c3cccc(S(C)(=O)=O)c3)s2)n(-c2ccccc2Cl)n1 [Example 1162, 1-(2-chlorophenyl)-N-methyl-N-(methyloxy)-5-{5-[3-(methylsulfonyl)phenyl]-2-thienyl}-1H-pyrazole-3-carboxamide] | < 1000
CS(=O)(=O)c1cccc(-c2ccc(-c3cc(C(=O)NCCCN4CCCC4)nn3-c3ccccc3Cl)s2)c1 [Example 733, 1-(2-chlorophenyl)-5-{5-[3-(methylsulfonyl)phenyl]-2-thienyl}-N-(3-pyrrolidin-1-ylpropyl)-1H-pyrazol-3-carboxamide] | < 1000
CS(=O)(=O)c1cccc(-c2ccc(-c3cc(C4(O)CC4)nn3-c3ccccc3Cl)s2)c1 [Example 1245, 1-[1-(2-chlorophenyl)-5-{5-[3-(methylsulfonyl)phenyl]-2-thienyl}-1H-pyrazol-3-yl]cyclopropanol] | < 1000
CC(C)(O)c1cccc(-n2nc(C(C)(C)O)cc2-c2ccc(-c3cccc(S(C)(=O)=O)c3)s2)c1 [Example 1226, 2-{3-[3-(1-hydroxy-1-methylethyl)-5-{5-[3-(methylsulfonyl)phenyl]-2-thienyl}-1H-pyrazol-1-yl]phenyl}propan-2-ol] | 1000 to 10000
CS(=O)(=O)c1cccc(-c2ccc(-c3c(Br)c(C(F)(F)F)nn3-c3c(Cl)cccc3Cl)s2)c1 [Example 1313, 4-bromo-1-(2,6-dichlorophenyl)-5-{5-[3-(methylsulfonyl)phenyl]-2-thienyl}-3-(trifluoromethyl)-1H-pyrazole] | < 1000
COC(=O)c1cc(-c2ccc(-c3cccc(S(=O)(=O)C(C)C)c3)s2)n(-c2ncccc2C(F)(F)F)n1 [Example 1170, methyl 5-(5-{3-[(1-methylethyl)sulfonyl]phenyl}-2-thienyl)-1-[3-(trifluoromethyl)pyridin-2-yl]-1H-pyrazole-3-carboxylate] | < 1000
CC(C)(O)c1cc(-c2ccc(-c3cccc(S(C)(=O)=O)c3)s2)n(-c2c(Cl)cc(Cl)cc2C(F)(F)F)n1 [Example 1341, 2-(1-[2,4-dichloro-6-(trifluoromethyl)phenyl]-5-{5-[3-(methylsulfonyl)phenyl]-2-thienyl}-1H-pyrazol-3-yl)propan-2-ol] | 1000 to 10000
O=C(O)CCNC(=O)c1ccc(-c2cc(C(F)(F)F)nn2-c2ccccc2Cl)cc1 [Example 1363, N-({4-[1-(2-chlorophenyl)-3-(trifluoromethyl)-1H-pyrazol-5-yl]phenyl}carbonyl)-beta-alanine] | 1000 to 10000
CS(=O)(=O)c1cc(-c2ccc(-c3cc(C(F)(F)F)nn3-c3cc(Cl)ccc3Cl)s2)ccc1OCCc1nnn[nH]1 [Example 1260, 5-(2-{[4-{5-[1-(2,5-dichlorophenyl)-3-(trifluoromethyl)-1H-pyrazol-5-yl]-2-thienyl}-2-(methylsulfonyl)phenyl]oxy}ethyl)-1H-tetrazole] | 1000 to 10000
CC(C)(O)c1nn(-c2ccccc2C(F)(F)F)c(-c2ccc(-c3cccc(S(C)(=O)=O)c3)s2)c1Cl [Example 1350, 2-(4-chloro-5-{5-[3-(methylsulfonyl)phenyl]-2-thienyl}-1-[2-(trifluoromethyl)phenyl]-1H-pyrazol-3-yl)propan-2-ol] | < 1000
COC(F)(F)c1cc(-c2ccc(-c3cccc(S(C)(=O)=O)c3)s2)n(-c2ccccc2C(F)(F)F)n1 [Example 1211, 3-[difluoro(methyloxy)methyl]-5-{5-[3-(methylsulfonyl)phenyl]-2-thienyl}-1-[2-(trifluoromethyl)phenyl]-1H-pyrazole] | < 1000
NS(=O)(=O)c1cccc(-c2ccc(-c3cc(C(F)(F)F)nn3-c3cc(Cl)ccc3Oc3ccccc3)s2)c1 [Example 1198, 3-(5-{1-[5-chloro-2-(phenyloxy)phenyl]-3-(trifluoromethyl)-1H-pyrazol-5-yl}-2-thienyl)benzenesulfonamide] | < 1000
Cc1cc(-n2nc(C(C)(C)O)cc2-c2c(Cl)cccc2Cl)ccc1-c1cccc(S(C)(=O)=O)c1 [Example 1417, 2-(5-(2,6-dichlorophenyl)-1-(2-methyl-3′-(methylsulfonyl)biphenyl-4-yl)-1H-pyrazol-3-yl)propan-2-ol] | 1000 to 10000
CN1CCN(C(=O)c2cc(-c3ccc(-c4cccc(S(C)(=O)=O)c4)s3)n(-c3ccccc3Cl)n2)CC1 [Example 508, 1-{[1-(2-chlorophenyl)-5-{5-[3-(methylsulfonyl)phenyl]-2-thienyl}-1H-pyrazole-3-yl]carbonyl}-4-methylpiperazine] | 1000 to 10000
Cc1cccc(C)c1-n1nc(C(C)(C)O)cc1-c1ccc(-c2cccc(S(C)(=O)=O)c2)s1 [Example 1352, 2-[1-(2,6-dimethylphenyl)-5-{5-[3-(methylsulfonyl)phenyl]-2-thienyl}-1H-pyrazol-3-yl]propan-2-ol] | < 1000
CC(C)(O)c1cc(-c2ccc(-c3cccc(S(C)(=O)=O)c3)s2)n(-c2ccccc2F)n1 [Example 1261, 2-[1-(2-fluorophenyl)-5-{5-[3-(methylsulfonyl)phenyl]-2-thienyl}-1H-pyrazol-3-yl]propan-2-ol] | < 1000
Cc1cc(-c2cccc(S(C)(=O)=O)c2)sc1-c1cc(C(C)(C)O)nn1-c1c(Cl)cccc1Cl [Example 137, 2-(1-(2,6-dichlorophenyl)-5-(3-methyl-5-(3-(methylsulfonyl)phenyl)thiophen-2-yl)-1H-pyrazol-3-yl)propan-2-ol] | < 1000
CC(=O)Nc1cccc(-c2ccc(-c3cc(C(C)(C)O)nn3-c3ccccc3Cl)cc2)c1 [Example 1311, N-{4′-[1-(2-chlorophenyl)-3-(1-hydroxy-1-methylethyl)-1H-pyrazol-5-yl]biphenyl-3-yl}acetamide] | 1000 to 10000
CC(C)(O)c1cc(-c2ccc(-c3ccc4cc[nH]c4c3)cc2)n(-c2ccccc2Cl)n1 [Example 1282, 2-{1-(2-chlorophenyl)-5-[4-(1H-indol-6-yl)phenyl]-1H-pyrazol-3-yl}propan-2-ol] | 1000 to 10000
CS(=O)(=O)c1cccc(-c2ccc(-c3cc(CN4CCCC4)nn3-c3ccccc3Cl)s2)c1 [Example 456, 1-(2-chlorophenyl)-5-{5-[3-(methylsulfonyl)phenyl]-2-thienyl}-3-(pyrrolidin-1-ylmethyl)-1H-pyrazole] | 1000 to 10000
COC(=O)c1cc(-c2cc(-c3cccc(S(C)(=O)=O)c3)co2)n(-c2ccccc2Cl)n1 [Example 1234, methyl 1-(2-chlorophenyl)-5-{4-[3-(methylsulfonyl)phenyl]furan-2-yl}-1H-pyrazole-3-carboxylate] | < 1000
CC(C)(O)c1cc(-c2ccc(-c3cccc(S(C)(=O)=O)c3)s2)n(Cc2ccc(F)cc2F)n1 [Example 1243, 2-(1-[(2,4-difluorophenyl)methyl]-5-{5-[3-(methylsulfonyl)phenyl]-2-thienyl}-1H-pyrazol-3-yl)propan-2-ol] | < 1000
CC(C)(O)c1cc(-c2ccc(-c3cccc(NS(C)(=O)=O)c3)cc2)n(-c2ccccc2Cl)n1 [Example 1309, N-{4′-[1-(2-chlorophenyl)-3-(1-hydroxy-1-methylethyl)-1H-pyrazol-5-yl]biphenyl-3-yl}methanesulfonamide] | 1000 to 10000
